Data as given in patent US20250154154A1 (Relay Binney Street, 2nd Floor, priority 2020, published 2025).

Experiments:
[1] = test system: RBE cells; assay: Cell Viability Protocol (CellTiterGlo), RBE cells; assay type: cell-based; conditions: RBE or SNU-1079 cells, 72 or 120 hour, cell line and time not given
Procedure, shortened: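 After 72 h or 120 h compound exposure at 37° C, viability was read by CellTiterGlo as % of DMSO vehicle, with IC50 fitted by a 4-parameter curve. Cells had been seeded at 1200/well in 10% FBS RPMI 1640 and allowed 24 h before dosing.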

[2] = molecular target: SRC (Homo sapiens, UniProt P12931); assay: SRC Biochemical Assay Protocol (microfluidic mobility shift assay, FLPeptide4 substrate)
Procedure, shortened: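 Mobility-shift readout of phosphorylated FLPeptide4 (1.5 μM) after 90 min kinase reaction with 50 μM ATP and 0.26 nM SRC in pH 7.4 HEPES buffer. Compounds, tested 0.0017–100 μM, were preincubated 30 min with enzyme and peptide; IC50 from 4-parameter logistic fit versus neutral controls.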

[3] = test system: phospho-S6RP (Ser 235/236) in RBE cells; assay: Cellular Proliferation Protocol (cellular phospho-S6RP HTRF), RBE cells; assay type: cell-based; conditions: 6 hours treatment, RBE or SNU-1079 cells, cell line not given
Procedure, shortened: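 Phospho-S6RP (Ser 235/236) was quantified by HTRF in lysed RBE cells (2000/well) after a 6 h treatment at 37° C, with overnight antibody incubation at room temperature. IC50 values came from 4-parameter dose-response fits relative to DMSO vehicle.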

Sequence of SRC (P12931 whole entry, species assumed): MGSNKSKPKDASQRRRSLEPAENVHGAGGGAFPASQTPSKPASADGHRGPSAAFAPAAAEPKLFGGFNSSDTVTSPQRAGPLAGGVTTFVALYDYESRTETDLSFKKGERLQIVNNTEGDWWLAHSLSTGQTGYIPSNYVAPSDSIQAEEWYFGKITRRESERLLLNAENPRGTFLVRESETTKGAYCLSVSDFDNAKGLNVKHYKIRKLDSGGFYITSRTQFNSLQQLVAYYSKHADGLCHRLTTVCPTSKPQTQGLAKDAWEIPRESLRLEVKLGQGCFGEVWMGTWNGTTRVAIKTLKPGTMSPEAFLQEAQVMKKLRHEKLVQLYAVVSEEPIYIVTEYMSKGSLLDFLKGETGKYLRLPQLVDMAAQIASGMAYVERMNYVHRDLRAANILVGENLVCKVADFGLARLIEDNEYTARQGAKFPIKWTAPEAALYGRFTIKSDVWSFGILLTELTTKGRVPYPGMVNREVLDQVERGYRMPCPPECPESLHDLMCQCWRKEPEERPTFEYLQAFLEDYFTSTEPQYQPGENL

IC50 [2] | Structure (SMILES) | IC50 [1] | IC50 [3] | IC50 ([3]; 6 h)
≤ 10 nM | C=CC(=O)N1CC[C@H](N2CC(C#Cc3c(-c4ccc(Cl)c(C)c4)c4c(N)ncnc4n3CC)C2)[C@H](O)C1 [II-113] | 10 to 1000 nM | 10 to 1000 nM | –
10 to 1000 nM | C=CC(=O)N1CC[C@@H](N2CC(C#Cc3c(-c4ccc(Oc5cccc(C)n5)cc4)c4c(N)ncnc4n3C)C2)[C@@H](F)C1 [II-201, 1-((3S,4R)-4-(3-((4-amino-7-methyl-5-(4-(6-methylpyridin-2-yloxy)phenyl)-7H-pyrrolo[2,3-d]pyrimidin-6-yl)ethynyl)azetidin-1-yl)-3-fluoropiperidin-1-yl)prop-2-en-1-one] | 10 to 1000 nM | – | 10 to 1000 nM
1000 to 10000 nM | C=CC(=O)N1CCC(N2CC(C#Cc3c(-c4c(Cl)ccc5c4OCO5)c4cncnc4n3C)C2)CC1 [II-29] | 1000 to 10000 nM | 1000 to 10000 nM | –
10 to 1000 nM | C=CC(=O)N1CC[C@@H](N2CC(C#Cc3c(-c4cc(OC)c(Cl)c(OC)c4)c4c(N)ncnc4n3C)C2)[C@@H](O)C1 [II-60] | 10 to 1000 nM | 10 to 1000 nM | –
10 to 1000 nM | C=CC(=O)N1CC[C@@H](N2CC(F)(C#Cc3c(-c4ccc(Oc5ccccc5)cc4)c4c(N)ncnc4n3C)C2)C[C@H]1CO [II-205, 1-((2S,4R)-4-(3-((4-amino-7-methyl-5-(4-phenoxyphenyl)-7H-pyrrolo[2,3-d]pyrimidin-6-yl)ethynyl)-3-fluoroazetidin-1-yl)-2-(hydroxymethyl)piperidin-1-yl)prop-2-en-1-one] | 10 to 1000 nM | – | 10 to 1000 nM
10 to 1000 nM | C=CC(=O)N1CCC(N2CC(C#Cc3c(-c4ccc(Cl)c(OC)c4)c4c(N)ncnc4n3CCOC)C2)CC1 [II-87] | 10 to 1000 nM | 10 to 1000 nM | –
